In brackets after ≈: the same amount, converted by molar mass. Read-outs that look alike come from different tables or passages of the source.
Key:
Format in all cases: physicochemical
[1] = Stability of monohydrate drug substance and oral capsules on storage
Text: NYX-2925 monohydrate drug product was formulated with the pharmaceutically acceptable excipients: microcrystalline cellulose, starch, and magnesium stearate.

[2] = Dynamic vapor sorption (DVS) profile
Text: FIG. 4 depicts the dynamic sorption vapor (DVS) profile of crystalline, monohydrate Form MH of NYX-2925. […] This is a fully reversible process and the sample loses this water when decreasing the relative humidity with a negligible hysteresis. At low relative humidity there is the release and uptake of about 5.5 wt. % in the range of about 0% to about 15% relative humidity with about 10% relative humidity hysteresis. The monohydrate Form MH of NYX-2925 retains about 5.7 weight % water content, corresponding to the stoichiometric water content of the, monohydrate, over the range of about 10% to about 80% relative humidity with less than 0.5 wt. % change. There is minimal water uptake above 80% relative humidity and about 1 weight % gain in the 90% to 95% relative humidity range.

[3] = Approximate solubility by stepwise dilution in solvents and solvent mixtures; settings: 22 °C, about 22° C., read-out: Solubility S
Method: Approximate solubilities were determined by a stepwise dilution of a suspension of about 10 mg of substance in 0.05 mL of solvent. If the substance was not dissolved by addition of a total of at least 10 ml solvent, the solubility was indicated as <1 mg/mL. For all experiments, analytical grade solvents were used.
The approximate solubility of crystalline, monohydrate Form MH of NYX-2925 across a range of solvents and solvent mixtures (expressed in volume ratios measured at about 22° C.) is provided in Table 8, below.

[4] = Solubility and stability of saturated solutions in pH 2-8 buffers at 25° C. (HPLC); settings: for solubility at 1 day / solubility at 4 days / solubility at 7 days: ca. 25° C., read-out: solubility in an aqueous solvent; for solubility at 1 day: after about 1 day; for solubility at 4 days: after about 4 days; for solubility at 7 days: after about 7 days
Method: Crystalline, monohydrate Form MH of (2S,3R)-3-hydroxy-2-((R)-5-isobutyryl-1-oxo-2,5-diazaspiro[3.4]octan-2-yl)butanamide was prepared as follows. Saturated solutions of 3-hydroxy-2-(5-isobutyryl-1-oxo-2,5-diazaspiro[3.4]octan-2-yl)butanamide were prepared in pH 2, pH 3, pH 5, pH 7, and pH 8 buffers and were stirred at 25° C. Aliquots were taken after 1 day, 4 days, and 7 days and centrifuged at 12,500 rpm for 15 minutes. The supernatant was analyzed for sample concentration by HPLC, and the residual solids were analyzed by XRPD after 1 day, 4 days, and 7 days.

[5] = Solid form conversion / physical stability (XRPD); settings: ambient conditions of temperature and humidity; versus anhydrous Forms A, B, and C
Method: X-ray powder diffraction (XRPD) analysis was carried out on a Stoe Stadi P with Mythen1K detector; Cu-Kα1 radiation; 40 kV and 40 mA tube power; curved Ge monochromator; 0.02° 2θ step size, 12 s step time, 1.5-50.5° 2θ scanning range; detector mode: step scan; 1° 2θ detector step. The sample (about 20 mg) was placed between two acetate foils and clamped in a Stoe transmission sample holder. The sample holder was rotated during the measurement.
X-ray powder diffraction (XRPD) analysis was also carried out on a on a Bruker D8 Advance; Cu-Kα radiation; standard measurement conditions: Bragg-Brentano reflection geometry; 40 kV and 40 mA tube power; LynxEye detector; 0.02° 2θ step size, 37 s step time, 2.5-50.5° 2θ scanning range (about 10 min measurement time. The sample was spread on a silicon single crystal substrate without cavity and flattened to fit to the 0.1 mm depth of the sample holder.
Crystalline, anhydrous Form C material of 3-hydroxy-2-(5-isobutyryl-1-oxo-2,5-diazaspiro[3.4]octan-2-yl)butanamide is not stable in comparison to anhydrous Form A or anhydrous Form B under ambient conditions of temperature and humidity. […] In turn, anhydrous Form A and anhydrous Form B each convert to monohydrate Form MH under the conditions described above.

[6] = aqueous buffer, pH 2, aqueous buffer, thermodynamic from solid, pH of about 2
[7] = aqueous buffer, pH 3, aqueous buffer, thermodynamic from solid, pH of about 3
[8] = aqueous buffer, pH 5, aqueous buffer, thermodynamic from solid, pH of about 5
[9] = aqueous buffer, pH 7, aqueous buffer, thermodynamic from solid, pH of about 7
[10] = aqueous buffer, pH 8, aqueous buffer, thermodynamic from solid, pH of about 8

With CC(C)C(=O)N1CCC[C@]12CN([C@H](C(N)=O)[C@@H](C)O)C2=O [Form MH, (2S,3R)-3-hydroxy-2-((R)-5-isobutyryl-1-oxo-2,5-diazaspiro[3.4]octan-2-yl)butanamide] the “changes in impurity profile or other quality attributes (appearance, assay, water content, microbial examination, XRPD)” value ([1]; 6 months at 40° C./75% relative humidity) was “no significant changes”, the “changes in impurity profile or other quality attributes (appearance, assay, water content, microbial examination, XRPD)” value ([1]; 12 months at 25° C./60% relative humidity) was “no significant changes” and the DVS weight gain ([2]; 90% to 95% relative humidity range) was “about 1 weight %”. For the same molecule, the “DVS release and uptake of water (reversible weight loss)” value ([2]; about 0% to about 15% relative humidity, about 10% RH hysteresis) was “about 5.5 wt. %”, the “DVS water content retained” value ([2]; about 10% to about 80% relative humidity) was “about 5.7 weight %” and the “DVS continuous reversible uptake of water” value ([2]; from about 50% to about 95% relative humidity, mainly above 90%) was “about 1.5 wt. %”. The “DVS change in water content” value ([2]; over about 10% to about 80% relative humidity) was “less than 0.5 wt. %”, the solubility ([3]; 1,4-dioxane, organic solvent or mixture, thermodynamic from solid, 1,4-dioxane) was 28 to 31 mg/mL (≈ 94.2 to 104 mM) and the solubility ([3]; 1/1 dichloromethane/methanol (v/v), organic solvent or mixture, thermodynamic from solid, 1/1 dichloromethane/methanol (volume ratio)) was greater than 200 mg/mL. For the same molecule, the solubility ([3]; 1/1 ethanol/water (v/v), aqueous with cosolvent or surfactant or cyclodextrin, thermodynamic from solid, 1/1 ethanol/water (volume ratio)) was 69 to 103 mg/mL, the solubility ([3]; 1/1 isopropanol/water (v/v), aqueous with cosolvent or surfactant or cyclodextrin, thermodynamic from solid, 1/1 isopropanol/water (volume ratio)) was 71 to 107 mg/mL and the solubility ([3]; 1/1 methanol/water (v/v), aqueous with cosolvent or surfactant or cyclodextrin, thermodynamic from solid, 1/1 methanol/water (volume ratio)) was greater than 200 mg/mL. For the same molecule, the solubility ([3]; 10/1 ethyl acetate/ethanol (v/v), organic solvent or mixture, thermodynamic from solid, 10/1 ethyl acetate/ethanol (volume ratio)) was 32 to 39 mg/mL, the solubility ([3]; 10/1 isopropanol/water (v/v), organic solvent or mixture, thermodynamic from solid, 10/1 isopropanol/water (volume ratio)) was 36 to 41 mg/mL and the solubility ([3]; acetone, organic solvent or mixture, thermodynamic from solid, acetone) was 57 to 76 mg/mL (≈ 192 to 256 mM). For the same molecule, the solubility ([3]; acetonitrile, organic solvent or mixture, thermodynamic from solid, acetonitrile) was 118 to 230 mg/mL (≈ 397 to 773 mM), the solubility ([3]; aniline, organic solvent or mixture, thermodynamic from solid, aniline) was greater than 200 mg/mL and the solubility ([3]; anisole, organic solvent or mixture, thermodynamic from solid, anisole) was roughly 3 mg/mL (≈ 10.1 mM). For the same molecule, the solubility ([3]; cyclohexane, organic solvent or mixture, thermodynamic from solid, cyclohexane) was roughly 1 mg/mL (≈ 3.36 mM), the solubility ([3]; dichloromethane, organic solvent or mixture, thermodynamic from solid, dichloromethane) was 55 to 73 mg/mL (≈ 185 to 245 mM) and the solubility ([3]; diisopropyl ether, organic solvent or mixture, thermodynamic from solid, diisopropyl ether) was less than 1 mg/mL. For the same molecule, the solubility ([3]; dimethyl sulfoxide, organic solvent or mixture, thermodynamic from solid, dimethyl sulfoxide) was greater than 200 mg/mL, the solubility ([3]; dimethylformamide, organic solvent or mixture, thermodynamic from solid, dimethylformamide) was greater than 200 mg/mL and the solubility ([3]; ethanol, organic solvent or mixture, thermodynamic from solid, ethanol) was greater than 200 mg/mL. The solubility ([3]; ethyl acetate saturated with water, organic solvent or mixture, thermodynamic from solid, ethyl acetate saturated with water) was 6 to 8 mg/mL (≈ 20.2 to 26.9 mM), the solubility ([3]; ethyl acetate, organic solvent or mixture, thermodynamic from solid, ethyl acetate) was 13 to 15 mg/mL (≈ 43.7 to 50.4 mM) and the solubility ([3]; heptane, organic solvent or mixture, thermodynamic from solid, heptane) was less than 1 mg/mL. It also gave a solubility ([3]; isopropanol, organic solvent or mixture, thermodynamic from solid, isopropanol) of 45 to 60 mg/mL (≈ 151 to 202 mM), a solubility ([3]; isopropyl acetate, organic solvent or mixture, thermodynamic from solid, isopropyl acetate) of 5 to 6 mg/mL (≈ 16.8 to 20.2 mM) and a solubility ([3]; methanol, organic solvent or mixture, thermodynamic from solid, methanol) greater than 200 mg/mL. For the same molecule, the solubility ([3]; methyl ethyl ketone, organic solvent or mixture, thermodynamic from solid, methyl ethyl ketone) was 32 to 38 mg/mL (≈ 108 to 128 mM), the solubility ([3]; tert-butyl methyl ether saturated with water, organic solvent or mixture, thermodynamic from solid, tert-butyl methyl ether saturated with water) was less than 1 mg/mL and the solubility ([3]; tert-butyl methyl ether, organic solvent or mixture, thermodynamic from solid, tert-butyl methyl ether) was less than 1 mg/mL. The solubility ([3]; tetrahydrofuran, organic solvent or mixture, thermodynamic from solid, tetrahydrofuran) was 31 to 36 mg/mL (≈ 104 to 121 mM), the solubility ([3]; toluene, organic solvent or mixture, thermodynamic from solid, toluene) was less than 1 mg/mL and the solubility ([3]; triethylamine, organic solvent or mixture, thermodynamic from solid, triethylamine) was less than 1 mg/mL. For the same molecule, the solubility ([3]; water, water, thermodynamic from solid, water) was 26 to 30 mg/mL (≈ 87.4 to 101 mM), the solubility at 1 day [4, 6] was roughly 54.1 mg/mL (≈ 182 mM) and the solubility at 4 days [4, 6] was roughly 53.5 mg/mL (≈ 180 mM). The solubility at 7 days [4, 6] was roughly 53.5 mg/mL (≈ 180 mM), the solubility at 1 day [4, 7] was roughly 54.2 mg/mL (≈ 182 mM) and the solubility at 4 days [4, 7] was roughly 53.2 mg/mL (≈ 179 mM). For the same molecule, the solubility at 7 days [4, 7] was roughly 52.4 mg/mL (≈ 176 mM), the solubility at 1 day [4, 8] was roughly 52.5 mg/mL (≈ 177 mM) and the solubility at 4 days [4, 8] was roughly 53.2 mg/mL (≈ 179 mM). The solubility at 7 days [4, 8] was roughly 52.4 mg/mL (≈ 176 mM), the solubility at 1 day [4, 9] was roughly 52.6 mg/mL (≈ 177 mM) and the solubility at 4 days [4, 9] was roughly 53 mg/mL (≈ 178 mM). For the same molecule, the solubility at 7 days [4, 9] was roughly 52.3 mg/mL (≈ 176 mM), the solubility at 1 day [4, 10] was roughly 52.7 mg/mL (≈ 177 mM) and the solubility at 4 days [4, 10] was roughly 51.6 mg/mL (≈ 174 mM). For the same molecule, the solubility at 7 days [4, 10] was roughly 52.6 mg/mL (≈ 177 mM), the solubility thermodynamic at 7 days ([4]; pH 2, pH 3, pH 5, pH 7 and pH 8 buffers, aqueous buffer, thermodynamic from solid, pH ranges of 2-8, 25° C., after 7 days, read-out: saturated concentration in buffers) was roughly 50 mg/mL (≈ 168 mM) and the “stability in saturated buffer solutions (HPLC analysis)” value ([4]; pH ranges of 2-8, 25° C., after 7 days) was “stable”. For the same molecule, the “relative stability of crystalline forms” value [5] was “more stable”.
